Data set [1] is described as follows: Chemical (aqueous) stability in buffer pH 7.4. Format: physicochemical. To be noted: 10 μM; pH 7.4 PBS; 37 °C; 24 h; HRMS/LCMS. How it is done:
The aqueous solubility was determined as previously reported with minor modifications.[48] Briefly, an excess amount of P11 or DRP-104 was added to PBS buffer (pH 7.4) and sonicated for 1 h at 37 °C to ensure saturation. After 1 h, the solution was filtered (0.45 μm PTFE), and the filtrate was diluted appropriately, and the concentration of each analyte was determined via LC–MS. Chemical stabilities of DRP-104 and P11 were done as previously described[18] with modifications. For chemical stability, prodrugs were spiked (10 μM) in buffer at pH 7.4 and incubated at 37 °C for 24 h. Prodrug disappearance was monitored using the developed HRMS methods.

Data set [2] can be described thus: Single time point pharmacokinetic screening, released DON in plasma and tumor of EL4 tumor-bearing mice. Format: in vivo, C57BL/6/CES1–/– mice. To be noted: 1 mg/kg DON equivalent SC; 30 min. On the procedure:
C57BL/6/CES1^–/– mice were obtained as a gift from the United States Army Medical Research Institute of Chemical Defense, Maryland, USA; breeding was performed in the Johns Hopkins animal facility and was conducted according to protocols reviewed and approved by the Johns Hopkins Institutional Animal Care and Use Committee in compliance with the Association for Assessment and Accreditation of Laboratory Animal Care International (AAALAC) and the Public Health Service Policy on the Humane Care and Use of Laboratory Animals (PHS Policy). Male and female C57BL/6 mice (weighing between 25 and 30 g) 6–8 weeks of age were used for the study. The animals were maintained on a 12 h light–dark cycle with ad libitum access to food (certified laboratory food: Teklad 18% Protein Extruded Rodent Diet) and water. EL4 mouse lymphoma cells were obtained as a gift from the laboratory of Dr. Jonathan Powell (Johns Hopkins University, Baltimore, MD) and maintained in RPMI 1640 medium 1X (Corning, cat. no. 10-040-CV) with 10% (v/v) fetal bovine serum (Corning, cat. no. 35-011-CV), 1% (v/v) antimycotic/antibiotic (Corning, cat. no. 30-004-CI), 2 mM L-glutamine (Corning, cat. no. 25-005-CI), and 10 mM HEPES (Corning, cat. no. 25-060-CI) in a 5% (v/v) CO2 and 95% (v/v) air incubator prior to subcutaneous (SC) injection (1 × 10^6 cells in 0.2 mL of phosphate-buffered saline) on the flank of each mouse. […]

The nature of data set [3]: Stability of P11 in human GI microsomes. Format: in vitro ADME. To be noted: Figure 3A.
Data set [4] can be described thus: Stability of P11 in human plasma. The settings on record: Figure 3A. It counts as in vitro ADME.
Protocol: (§1) Briefly, intestinal tissue was homogenized over ice via probe sonication with 1:9 tissue to potassium phosphate buffer (0.1 M) conditions. Prodrugs were spiked in plasma or tissue homogenate at 10 μM final concentration with 0.2% DMSO v/v and incubated in triplicate for 0 and 60 min time points. At each time point, 100 μL of the sample was precipitated with 300 μL of methanol containing internal standard (IS; losartan, 0.5 μM). Precipitated samples were vortexed (30 s) and centrifuged at 10000g for 10 min at 4 °C. After centrifugation, 100 μL of supernatant was aliquoted and submitted for analysis. Prodrug disappearance over time was monitored by liquid chromatography–mass spectrometry (LC–MS) through peak area ratios between the analyte and internal standard.
Data set [5] can be described thus: Metabolic stability in mouse intestinal homogenate (GIh).
Protocol: as §1
Chromatographic analysis was performed on a Dionex ultra-high-performance LC system coupled with a Q Exactive Focus Orbitrap mass spectrometer (Thermo Fisher Scientific Inc., Waltham, MA). Separation was achieved using an Agilent Eclipse Plus column (100 × 2.1 mm i.d.; maintained at 35 °C) packed with a 1.8 μm C18 stationary phase. The mobile phase used was composed of 0.1% formic acid in acetonitrile and 0.1% formic acid in water with gradient elution, starting with 2.5% organic phase (from 0 to 0.25 min) and linearly increasing to 99% (from 0.25 to 1.25 min) and re-equilibrating to 2.5% by 4 min. The total run time for each analyte was 5 min. Pumps were operated at a flow rate of 0.4 mL/min. The mass spectrometer controlled by Xcalibur software 4.0.27.13 (Thermo Scientific) was operated with an HESI ion source in positive ionization mode for all compounds. Compounds were identified in the full-scan mode with m/z ranging from 75 to 1125.
For data set [6], the system named is P493B lymphoma cells suspended in human plasma. As to the kind of experiment: Human tumor cell to plasma partitioning assay. Format: cell-based. To be noted: 20 μM; 1 h; human plasma fraction. How it is done: Human tumor cell to plasma partitioning assays were conducted as we have previously described.[25] Briefly, P493B lymphoma cells were grown at 37 °C, in a humidified atmosphere with 5% CO2. Cell confluency was estimated, and cells were harvested after achieving >80% confluency and centrifuged at 200g for 5 min at 25 °C. The obtained cell pellet was resuspended in 20 mL of Dulbecco’s phosphate-buffered saline (DPBS; Gibco, USA, cat. no. 14-190-144) maintained at 37 °C, and cell count was determined using an automated cell counter (Bio-Rad, USA). Cell suspension in DPBS was further centrifuged at 200g for 5 min at 25 °C, and the cell pellet was resuspended in human plasma (Innovative Research, USA) for partitioning assessment. The final cell density after resuspending in plasma was 10 million cells/mL of plasma. Partitioning assessment was performed in triplicate. Preincubated (37 °C for 5 min) cell–plasma suspension was spiked with DRP-104 or P11 at a final concentration of 20 μM and incubated at 37 °C for 1 h. Following incubation, a 1 mL aliquot of cell–plasma suspension was centrifuged at 1000g for 5 min at 4 °C, and supernatant plasma as well as the cell pellet was collected and stored at −80 °C until bioanalysis. Both plasma and cell pellet fractions were analyzed for intact prodrug and DON levels. […]

The structures appear in SMILES notation. Entries after “also recorded” stand apart in the source; their conditions may differ.

Usually share remaining stands for what is left of the initial amount, in per cent. A high value points to less turnover.

In the case of `CN(C)CC(=O)N[C@@H](Cc1ccccc1)C(=O)N[C@@H](CCC(=O)C=[N+]=[N-])C(=O)OC(C)(C)C` [Prodrug P11, tert-Butyl (S)-6-Diazo-2-((S)-2-(2-(dimethylamino)acetamido)-3-phenylpropanamido)-5-oxohexanoate], the “chemical stability in buffer” value in data set [1] is listed as “remained intact without any degradation; also recorded: no degradation”. The “preferential DON tumor versus plasma delivery” value in data set [2] is “maintained the preferential DON tumor versus plasma delivery”. In addition, in data set [3], the “stability in human GI microsomes” value is listed as “confirmed”. In addition, the “stability in human plasma” value in data set [4] was “confirmed”. Further, the fraction remaining at 1 h, 10 µM in data set [5] (CES1–/–, mouse, intestinal homogenate) was determined as 78 ± 2%. Further, the Intestinal homogenate in data set [5] (supplementary CSV, unit not given, matches Table 1 % remaining at 1 h, in %) was found to be 78 ± 2. Moreover, the “stability and DON release in human plasma” value in data set [6] is on record as “stable in human plasma with no DON release”.

These data come from paper PMC10683027, “Discovery of tert-Butyl Ester Based 6-Diazo-5-oxo-L-norleucine Prodrugs for Enhanced Metabolic Stability and Tumor Delivery” (Journal of Medicinal Chemistry, 2023).
